Results from US5661160A, “Substituted pyrrolidin-3-yl-alkyl-piperidines” (Merrell Pharmaceuticals Inc., priority 1995, dated 1997).
Counter-ions that a name gives are not always drawn.

How the values were obtained:
[1] = molecular target: T1, NK1 receptor (UC11 cells) (Homo sapiens, UniProt P25103); assay: Antagonism of NK1 receptor mediated (SP-induced) phosphatidylinositol turnover in UC11 cells; type: cell-based
T1 construct: endogenous in cells; host or cells: UC11 cells
Procedure: Tachykinin-mediated inositol phosphate accumulation was measured in UC11 or SKLKB82#3 cells in the presence and absence of NK1 or NK2 receptor antagonists, respectively. Tissues were incubated in Krebs-Henseleit buffer at 37° C. with 95% O2 -5% CO2 gassing. Tissues were then incubated with fresh buffer containing 100 μCi of myo-[2-^3 H(N)] inositol at 37° C. for 60 min with gentle gassing. After washing twice in 5 ml room temperature buffer containing 10 mM LiCl, tissues were incubated for 30 min at room temperature with a buffer change at 15 min. Buffer was removed and Krebs-Henseleit buffer (containing 40 μg/ml bacitracin, 4 μg/ml each of leupeptin and chymostatin, 0.1% bovine serum albumin and 10 mM each of thiorphan and LiCl) added. After 15 min, SP was added to UC11 cells or NKA to SKLKB82#3 cells at various concentrations to start the reaction. […] The third elution was collected and 1 ml counted in 7 ml scintillation fluid. A 50 μl aliquot of the organic (bottom) phase was removed, dried in a scintillation vial and counted in 7 ml scintillation fluid.
(§1) The ratio of DPM in the aqueous phase aliquot (total inositol phosphates) to the DPM in the 50 μl organic phase aliquot (total [^3 H]-inositol incorporated) was calculated for each sample. Data are expressed as a percent of agonist-induced accumulation of [^3 H]-inositol phosphates over basal levels. […] Dose-response graphs were constructed and the abilities of the test compounds to inhibit tachykinin-induced phosphatidyinositol turnover determined with the aid of a computer program. […] Data is expressed as percent stimulation of total inositol phosphate accumulation over basal levels and normalized to the maximum response produced by SP. […] Schild analysis is performed using dose response curves (such as those presented in FIGS. 1a and 1b) to obtain a value indicative of the Strength of a competitive antagonist and is expressed as the pA2, which is the negative logarithm of the molar concentration of antagonist which reduces the effect of a dose of agonist to one-half of that expected at the dose of agonist.

[2] = molecular target: T2, NK2 receptor (SKLKB82#3 cells) (Bos taurus, UniProt P05363); assay: Antagonism of NK2 receptor mediated (NKA-induced) phosphatidylinositol turnover in SKLKB82#3 cells; type: cell-based; conditions: for NK-2 RECEPTOR -SLOPE: Schild analysis, NKA, mean (95% confidence limits)
T2 construct: expressed in transfected cells; host or cells: SKLKB82#3 cells (mouse B82 fibroblasts, own knowledge)
T2 sequence (P05363 1-384): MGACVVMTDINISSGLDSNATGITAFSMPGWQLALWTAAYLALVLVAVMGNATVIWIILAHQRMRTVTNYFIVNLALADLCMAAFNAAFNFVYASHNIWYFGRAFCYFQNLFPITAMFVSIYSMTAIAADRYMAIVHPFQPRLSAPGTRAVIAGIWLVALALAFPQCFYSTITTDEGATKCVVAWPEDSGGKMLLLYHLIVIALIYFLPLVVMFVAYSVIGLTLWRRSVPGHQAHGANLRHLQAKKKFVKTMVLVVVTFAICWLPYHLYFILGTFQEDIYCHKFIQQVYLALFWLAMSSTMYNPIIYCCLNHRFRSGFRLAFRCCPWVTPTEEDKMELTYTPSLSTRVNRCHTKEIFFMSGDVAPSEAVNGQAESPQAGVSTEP
Procedure: Tachykinin-mediated inositol phosphate accumulation was measured in UC11 or SKLKB82#3 cells in the presence and absence of NK1 or NK2 receptor antagonists, respectively. Tissues were incubated in Krebs-Henseleit buffer at 37° C. with 95% O2 -5% CO2 gassing. Tissues were then incubated with fresh buffer containing 100 μCi of myo-[2-^3 H(N)] inositol at 37° C. for 60 min with gentle gassing. After washing twice in 5 ml room temperature buffer containing 10 mM LiCl, tissues were incubated for 30 min at room temperature with a buffer change at 15 min. Buffer was removed and Krebs-Henseleit buffer (containing 40 μg/ml bacitracin, 4 μg/ml each of leupeptin and chymostatin, 0.1% bovine serum albumin and 10 mM each of thiorphan and LiCl) added. After 15 min, SP was added to UC11 cells or NKA to SKLKB82#3 cells at various concentrations to start the reaction. After incubation for 60 min at room temperature the reaction was terminated by addition of 930 μl chloroform:methanol (1:2 by volume) to each tube, followed by 310 μl chloroform and 310 μl doubly distilled water. Samples were vortexed, centrifuged, and 0.9 ml of the aqueous (top) phase removed and added to 2 ml ddH2 O. The mixture was vortexed and loaded onto a 50% Bio-Rad AG 1-X8 (formate form, 100-200 mesh) exchange column (Bio-Rad Laboratories, Hercules, Calif.). The columns were washed, in order, with: 1) 10 ml doubly distilled water, 2) 5 ml of 5 mM disodium tetraborate/60 mM sodium formate, and 3) 5 ml of 1M ammonium formate/0.1M formic acid. The third elution was collected and 1 ml counted in 7 ml scintillation fluid. A 50 μl aliquot of the organic (bottom) phase was removed, dried in a scintillation vial and counted in 7 ml scintillation fluid.
as §1

NK1 and NK2 receptors [3] = assay: Antagonism of capsaicin aerosol-induced respiratory effects in conscious guinea pigs, intravenous; type: in vivo, guinea pig; conditions: for SRE NUMBER: coughs/gasps during 19 min capsaicin exposure, mean and SEM; for effect on capsaicin-induced respiratory effects (in words): i.v.
Procedure: (§2) In vivo experiments were performed using male Duncan Hartley guinea pigs (250-350 g). Changes in conscious breathing patterns were monitored in four animals simultaneously using modified whole body plethysmography consisting of four small plexiglass boxes each connected to a reference box via Validyne DP 45-16 differential pressure transducers. The 4 boxes were equipped with an air supply line (also used for aerosol delivery) and an exhaust air line. Supply and exhaust lines were of the same length and narrow bore and arose from a common supply chamber and vented to a common exhaust chamber. This system was used to ensure that fluctuations in supply air and atmospheric pressure would remain in phase and be eliminated from the net signal by the differential pressure transducers. The analog pressure signals were digitalized via a Data Translation DT2821 A to D board. Data were collected at a rate of 100 samples/second/animal. Each cycle of pressure change was analyzed using the following parameters: rising and falling slope determined between minimum and maximum pressures, the ratio of rising over falling slope, and the magnitude of the change between initial trough pressure and peak cycle pressure. Using these values (and observing the animals) the pressure cycles were characterized into normal breaths, forced exhalations (apparent by abdominal heaving), significant respiratory events (SREs; usually coughs, less often sneezes or gasps which were characterized by transient, extremely large pressure increases which were distinguishable from noise) and movement/noise with a PCAT 286 running a System V UNIX operating system. Dyspnea was defined as a significant, sustained increase in plethysmograph pressure which was associated with an observable shift to labored breathing in the animal.
(§3) During the course of a typical experiment in which airway responsiveness to various bronchoconstricting agents was examined, aerosols were delivered for 19 min (0.33 ml/min) using a DeVilbiss Ultraneb 99 ultrasonic nebulizer and animals monitored during this time. Prior to nebulization, 1 min of resting breathing was collected to establish a baseline pressure. […] The vehicle for nebulization of all bronchoconstrictive agents was phosphate buffered saline (pH 7.4) which elicited no respiratory effects itself. Putative tachykinin antagonists were administered either (i.v.) 20 min prior to onset of aerosol exposure or orally 1 hour prior to onset (to guinea pigs after an overnight fast).
(§4) Capsaicin aerosol is known to promote release of the tachykinins SP and NKA from sensory nerves in the airways of guinea pigs which may then act upon NK1 and NK2 receptors, respectively to elicit respiratory effects.

NK1 and NK2 receptors [4] = assay: Antagonism of capsaicin aerosol-induced respiratory effects in conscious guinea pigs, oral; type: in vivo, guinea pig; conditions: for SRE NUMBER: coughs/gasps during 19 min capsaicin exposure, mean and SEM; for effect on capsaicin aerosol effects (in words): oral
Procedure: as §2, §3, §4

NK1 receptors = molecular target: T3, NK1 receptors (Cavia porcellus, UniProt P30547); assay: Antagonism of SP-induced plasma protein extravasation in guinea pig trachea; type: in vivo; conditions: for relative potency as NK-1 receptor antagonists (in words): Example 3 versus its (+)-enantiomer Example 20A
T3 construct: measuring Evans Blue dye accumulation in guinea pig trachea; from tissue; host or cells: guinea pig trachea and primary bronchi, whole animal in vivo
T3 sequence (P30547 whole entry): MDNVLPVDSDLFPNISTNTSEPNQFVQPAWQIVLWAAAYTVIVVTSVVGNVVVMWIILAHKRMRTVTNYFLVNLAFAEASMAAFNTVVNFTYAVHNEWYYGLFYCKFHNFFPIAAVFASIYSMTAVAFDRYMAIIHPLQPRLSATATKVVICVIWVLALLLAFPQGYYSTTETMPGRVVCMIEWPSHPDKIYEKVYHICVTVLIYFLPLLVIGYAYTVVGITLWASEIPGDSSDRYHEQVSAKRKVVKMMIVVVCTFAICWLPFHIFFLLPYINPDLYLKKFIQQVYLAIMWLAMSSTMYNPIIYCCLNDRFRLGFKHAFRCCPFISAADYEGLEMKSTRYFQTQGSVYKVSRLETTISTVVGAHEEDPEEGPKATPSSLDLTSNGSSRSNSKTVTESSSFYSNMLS
Procedure: SP-induced protein leakage through postcapillary venules was assessed by measuring Evans Blue dye accumulation in guinea pig trachea. Animals were anesthetized with pentobarbital then injected with Evans Blue dye (20 mg/kg, i.v., prepared in 0.9% NaCl solution). One minute after dye administration, the antagonist was administered (i.v.) followed by SP (0.3 nmole/kg, i.v.) and, after 5 min, excess dye removed from the circulation by transcardiac perfusion with 50 ml 0.9% NaCl solution. The trachea and primary bronchi were removed, blotted dry and weighed. Dye quantitation was performed spectrophotometrically ([…]) after extracting tissues in formamide for 24 hr at 50° C. Values were subtracted from background (dye only, no agonist). ED50 (dose of compound which inhibits SP-induced plasma protein extravasation by 50%) was calculated from linear regression analysis.

NK2 receptor = assay: Antagonism of NKA aerosol-induced respiratory effects in conscious guinea pigs; type: in vivo, guinea pig; conditions: dose dependent
Procedure: as §2
During the course of a typical experiment in which airway responsiveness to various bronchoconstricting agents was examined, aerosols were delivered for 19 min (0.33 ml/min) using a DeVilbiss Ultraneb 99 ultrasonic nebulizer and animals monitored during this time. […]

T1 sequence (P25103 whole entry): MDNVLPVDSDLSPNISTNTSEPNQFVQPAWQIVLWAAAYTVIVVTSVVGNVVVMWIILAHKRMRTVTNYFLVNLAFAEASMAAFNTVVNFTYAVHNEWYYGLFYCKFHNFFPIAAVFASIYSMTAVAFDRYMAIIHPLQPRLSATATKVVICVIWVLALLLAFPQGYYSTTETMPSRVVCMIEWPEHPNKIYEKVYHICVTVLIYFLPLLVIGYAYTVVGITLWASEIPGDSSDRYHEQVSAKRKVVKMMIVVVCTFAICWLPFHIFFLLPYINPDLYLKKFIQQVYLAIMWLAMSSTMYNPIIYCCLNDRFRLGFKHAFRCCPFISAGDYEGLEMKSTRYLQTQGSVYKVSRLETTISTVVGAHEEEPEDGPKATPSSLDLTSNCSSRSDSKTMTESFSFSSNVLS

Compound	NK-2 RECEPTOR -SLOPE [2]	SRE NUMBER (NK1 and NK2 receptors [3]; 10 mg/kg i.v.)	effect on capsaicin-induced respiratory effects (in words) (NK1 and NK2 receptors [3])	effect on capsaicin aerosol effects (in words) (NK1 and NK2 receptors [4])	relative potency as NK-1 receptor antagonists (in words) (NK1 receptors)	effect on NKA aerosol respiratory effects (in words) (NK2 receptor)	further results
COc1cc(C(=O)N2CCC(CCN3CCC(C(N)=O)(c4ccccc4)CC3)(c3ccc(Cl)c(Cl)c3)C2)cc(OC)c1OC (racemic) [Example 3A, 1-[2-[3-(3,4-dichloro-phenyl)-1-(3,4,5-trimethoxy-benzoyl)-pyrrolidin-3-yl]-ethyl]-4-phenyl-piperidine-4-carboxylic acid amide hydrochloride]	0.73	8.50 ± 1.9	attenuate capsaicin-induced respiratory effects	antagonize the effects of capsaicin aerosol			NK-1 RECEPTOR -SLOPE ([1]; Schild analysis, SP, mean (95% confidence limits)): 0.90; SRE NUMBER (NK1 and NK2 receptors [4]; 25 mg/kg oral): 4.6 ± 1.0; SRE NUMBER (NK1 and NK2 receptors [4]; 50 mg/kg oral): 2.8 ± 0.8; SRE NUMBER (NK1 and NK2 receptors [4]; 100 mg/kg oral): 2.1 ± 0.5
COc1cc(C(=O)N2CCC(CCN3CCC(C(N)=O)(c4ccccc4)CC3)(c3ccc(Cl)c(Cl)c3)C2)cc(OC)c1OC.Cl (single isomer, unassigned; (+)) [Example 20A, (+)-1-[2-[3-(3,4-dichloro-phenyl)-1-(3,4,5-trimethoxy-benzoyl)-pyrrolidin-3-yl]-ethyl]-4-phenyl-piperidine-4-carboxylic acid amide hydrochloride]		3.3 ± 1.1	attenuate capsaicin-induced respiratory effects		equipotent	reduced the effects of NKA aerosol	SRE NUMBER (NK1 and NK2 receptors [3]; 1 mg/kg i.v.): 9.9 ± 2.7; SRE NUMBER (NK1 and NK2 receptors [3]; 2.5 mg/kg i.v.): 8.3 ± 1.6; SRE NUMBER (NK1 and NK2 receptors [3]; 5 mg/kg i.v.): 4.4 ± 1.9
COc1cc(C(=O)N2CCC(CCN3CCC(C(N)=O)(c4ccccc4)CC3)(c3ccc(Cl)c(Cl)c3)C2)cc(OC)c1OC (single isomer, unassigned; (+)) [Example 20]	1.00						
COc1cc(C(=O)N2CCC(CCN3CCC(C(N)=O)(c4ccccc4)CC3)(c3ccc(Cl)c(Cl)c3)C2)cc(OC)c1OC (stereo not shown) [Example 3, 1-[2-[3-(3,4-dichloro-phenyl)-1-(3,4,5-trimethoxy-benzoyl)-pyrrolidin-3-yl]-ethyl]-4-phenyl-piperidine-4-carboxylic acid amide]					equipotent	reduced the effects of NKA aerosol	antagonism of SP induced PI turnover (in words) ([1]; FIG. 1a): dose related antagonism; agonist activity, PI turnover (in words) ([1]; compound alone): no agonist activity; antagonism of NKA induced PI turnover (in words) ([2]; FIG. 1b): dose related antagonism; agonist activity, PI turnover (in words) ([2]; compound alone): no agonist activity; antagonism of SP-induced plasma protein extravasation (in words) (NK1 receptors; FIG. 2): dose related antagonism
COc1cccc(OC)c1C(=O)N1CCC(CCN2CCC(C(N)=O)(c3ccccc3)CC2)(c2ccc(Cl)c(Cl)c2)C1 (stereo not shown) [Example 5A, 1-[2-[3-(3,4-dichloro-phenyl)-1-(2,6-dimethoxy-benzoyl)-pyrrolidin-3-yl]-ethyl]-4-phenyl-piperidine-4-carboxylic acid amide hydrochloride]						reduced the effects of NKA aerosol	
COc1cccc(OC)c1C(=O)N1CCC(CCN2CCC(C(N)=O)(c3ccccc3)CC2)(c2ccc(Cl)c(Cl)c2)C1 (stereo not shown) [Example 5]				antagonize the effects of capsaicin aerosol			
